According to publication PMC3243762 (Clinical cancer research : an official journal of the …, 2011):
Several values for one entry are separate records, joined by “and”; a condition that tells them apart may be missing. Identical values can stand only once. Like-named read-outs stand apart in the source and are kept apart here.

Legend:
[1] = Human radiation dosimetry estimates
[2] = system: PSMA+ PC3 PIP and PSMA− PC3 flu xenografts; conditions: for Biodistribution, Bladder (empty) / Biodistribution, Blood / Biodistribution, Bone / Biodistribution, Heart / Biodistribution, Kidney / Biodistribution, Liver / Biodistribution, Lung / Biodistribution, Muscle / Biodistribution, PSMA+ PIP tumor / Biodistribution, PSMA− flu tumor / Biodistribution, Pancreas / Biodistribution, Spleen / Biodistribution, Stomach / Biodistribution, lrg. Intest / Biodistribution, sm. Intest: iv, n = 4
[3] = human source organ, from mouse data

O=C(O)CCC(NC(=O)NC(CCCCNC(=O)c1ccc([18F])nc1)C(=O)O)C(=O)O (centres unmarked) [[^18F]DCFPyL, 2-(3-{1-Carboxy-5-[(6-[^18F]fluoro-pyridine-3-carbonyl)-amino]-pentyl}-ureido)-pentanedioic acid]
Absorbed dose, Total body ([1]; estimated human): 5.71E-03 mGy/MBq
Effective dose ([1]; estimated human): 1.36E-02 mSv/MBq
Effective dose equivalent ([1]; estimated human): 1.80E-02 mSv/MBq
Absorbed dose, Adrenals ([1]; estimated human target organ): 6.46E-03 mGy/MBq
Absorbed dose, Brain ([1]; estimated human target organ): 4.84E-03 mGy/MBq
Absorbed dose, Breasts ([1]; estimated human target organ): 3.97E-03 mGy/MBq
Absorbed dose, Gallbladder wall ([1]; estimated human target organ): 6.48E-03 mGy/MBq
Absorbed dose, Heart wall ([1]; estimated human target organ): 3.26E-03 mGy/MBq
Absorbed dose, Kidneys ([1]; estimated human target organ): 0.05 mGy/MBq and 4.81E-02 mGy/MBq
Absorbed dose, Liver ([1]; estimated human target organ): 7.38E-03 mGy/MBq
Absorbed dose, Lower large intestine wall ([1]; estimated human target organ): 9.40E-03 mGy/MBq
Absorbed dose, Lungs ([1]; estimated human target organ): 3.01E-03 mGy/MBq
Absorbed dose, Muscle ([1]; estimated human target organ): 3.95E-03 mGy/MBq
Absorbed dose, Osteogenic cells ([1]; estimated human target organ): 7.59E-03 mGy/MBq
Absorbed dose, Ovaries ([1]; estimated human target organ): 9.06E-03 mGy/MBq
Absorbed dose, Pancreas ([1]; estimated human target organ): 4.38E-03 mGy/MBq
Absorbed dose, Red marrow ([1]; estimated human target organ): 5.35E-03 mGy/MBq
Absorbed dose, Skin ([1]; estimated human target organ): 3.84E-03 mGy/MBq
Absorbed dose, Small intestine ([1]; estimated human target organ): 7.53E-03 mGy/MBq
Absorbed dose, Spleen ([1]; estimated human target organ): 6.57E-03 mGy/MBq
Absorbed dose, Stomach wall ([1]; estimated human target organ): 5.27E-03 mGy/MBq
Absorbed dose, Testes ([1]; estimated human target organ): 7.06E-03 mGy/MBq
Absorbed dose, Thymus ([1]; estimated human target organ): 4.43E-03 mGy/MBq
Absorbed dose, Thyroid ([1]; estimated human target organ): 4.45E-03 mGy/MBq
Absorbed dose, Upper large intestine wall ([1]; estimated human target organ): 6.67E-03 mGy/MBq
Absorbed dose, Urinary bladder wall ([1]; estimated human target organ): 0.15 mGy/MBq and 1.51E-01 mGy/MBq
Absorbed dose, Uterus ([1]; estimated human target organ): 1.45E-02 mGy/MBq
Time-integrated activity coefficient, Urinary bladder contents ([1]; human source organ, dynamic voiding bladder model, one hour voiding interval): 3.09E-01 MBq-h/MBq
Time-integrated activity coefficient, Heart wall [1, 3]: 3.97E-04 MBq-h/MBq
Time-integrated activity coefficient, Kidneys [1, 3]: 7.47E-02 MBq-h/MBq
Time-integrated activity coefficient, Liver [1, 3]: 4.09E-02 MBq-h/MBq
Time-integrated activity coefficient, Lower large intestine [1, 3]: 4.23E-04 MBq-h/MBq
Time-integrated activity coefficient, Lungs [1, 3]: 3.52E-03 MBq-h/MBq
Time-integrated activity coefficient, Muscle [1, 3]: 4.50E-02 MBq-h/MBq
Time-integrated activity coefficient, Pancreas [1, 3]: 1.48E-04 MBq-h/MBq
Time-integrated activity coefficient, Small intestine [1, 3]: 1.30E-03 MBq-h/MBq
Time-integrated activity coefficient, Spleen [1, 3]: 2.98E-03 MBq-h/MBq
Time-integrated activity coefficient, Stomach [1, 3]: 3.36E-04 MBq-h/MBq
Time-integrated activity coefficient, Upper large intestine [1, 3]: 4.23E-04 MBq-h/MBq
Time-integrated activity coefficient, Remainder ([1]; human, remainder of body, from mouse data): 8.51E-01 MBq-h/MBq
Biodistribution, Bladder (empty) ([2]; 30 min pi): 18.6± 18.1 % ID/g
Biodistribution, Blood ([2]; 30 min pi): 1.53±0.19 % ID/g
Biodistribution, Bone ([2]; 30 min pi): 0.82 ±0.16 % ID/g
Biodistribution, Heart ([2]; 30 min pi): 0.68 ±0.07 % ID/g
Biodistribution, Kidney ([2]; 30 min pi): 74.1 ±6.6 % ID/g
Biodistribution, Liver ([2]; 30 min pi): 3.88 ±0.74 % ID/g
Biodistribution, Lung ([2]; 30 min pi): 1.91 ±0.47 % ID/g
Biodistribution, Muscle ([2]; 30 min pi): 0.39 ±0.05 % ID/g
Biodistribution, PSMA+ PIP tumor ([2]; 30 min pi): 46.7 ±5.8 % ID/g
Biodistribution, PSMA− flu tumor ([2]; 30 min pi): 1.17 ±0.41 % ID/g
Biodistribution, Pancreas ([2]; 30 min pi): 1.02 ±0.53 % ID/g
Biodistribution, Spleen ([2]; 30 min pi): 7.59 ±3.56 % ID/g
Biodistribution, Stomach ([2]; 30 min pi): 1.50±1.12 % ID/g
Biodistribution, lrg. Intest ([2]; 30 min pi): 0.73 ±0.04 % ID/g
Biodistribution, sm. Intest ([2]; 30 min pi): 0.79 ±0.11 % ID/g
Biodistribution, Bladder (empty) ([2]; 60 min pi): 9.88 ±4.92 % ID/g
Biodistribution, Blood ([2]; 60 min pi): 0.24 ±0.05 % ID/g
Biodistribution, Bone ([2]; 60 min pi): 0.42 ±0.15 % ID/g
Biodistribution, Heart ([2]; 60 min pi): 0.20 ±0.11 % ID/g
Biodistribution, Kidney ([2]; 60 min pi): 42.3 ±19.0 % ID/g
Biodistribution, Liver ([2]; 60 min pi): 2.87 ±0.92 % ID/g
Biodistribution, Lung ([2]; 60 min pi): 0.55 ±0.17 % ID/g
Biodistribution, Muscle ([2]; 60 min pi): 0.61 ±0.92 % ID/g
Biodistribution, PSMA+ PIP tumor ([2]; 60 min pi): 44.2 ±9.7 % ID/g
Biodistribution, PSMA− flu tumor ([2]; 60 min pi): 0.36 ±0.14 % ID/g
Biodistribution, Pancreas ([2]; 60 min pi): 0.26 ±0.13 % ID/g
Biodistribution, Spleen ([2]; 60 min pi): 2.70 ±1.28 % ID/g
Biodistribution, Stomach ([2]; 60 min pi): 0.35 ±0.34 % ID/g
Biodistribution, lrg. Intest ([2]; 60 min pi): 0.40 ±0.17 % ID/g
Biodistribution, sm. Intest ([2]; 60 min pi): 0.31 ±0.12 % ID/g
Biodistribution, Bladder (empty) ([2]; 120 min pi): 6.44 ±4.42 % ID/g
Biodistribution, Blood ([2]; 120 min pi): 0.43 ±0.37 % ID/g
Biodistribution, Bone ([2]; 120 min pi): 0.33 ±0.08 % ID/g
Biodistribution, Heart ([2]; 120 min pi): 0.06 ±0.01 % ID/g
Biodistribution, Kidney ([2]; 120 min pi): 15.7 ±3.3 % ID/g
Biodistribution, Liver ([2]; 120 min pi): 2.1 % ID/g
Biodistribution, Lung ([2]; 120 min pi): 0.18 ±0.02 % ID/g
Biodistribution, Muscle ([2]; 120 min pi): 0.04 ±0.00 % ID/g
Biodistribution, PSMA+ PIP tumor ([2]; 120 min pi): 39.4 ±5.4 % ID/g
Biodistribution, PSMA− flu tumor ([2]; 120 min pi): 0.11 ±0.02 % ID/g
Biodistribution, Pancreas ([2]; 120 min pi): 0.08 ±0.00 % ID/g
Biodistribution, Spleen ([2]; 120 min pi): 0.69 ±0.11 % ID/g
Biodistribution, Stomach ([2]; 120 min pi): 0.08 ±0.03 % ID/g
Biodistribution, lrg. Intest ([2]; 120 min pi): 0.12 ±0.05 % ID/g
Biodistribution, sm. Intest ([2]; 120 min pi): 0.11 ±0.07 % ID/g
Biodistribution, Liver ([2]; 120 min pi, listed as [^18F]3): 2.14±0.11 % ID/g
Biodistribution, Bladder (empty) ([2]; 240 min pi): 1.54 ±1.79 % ID/g
Biodistribution, Blood ([2]; 240 min pi): 0.03 ±0.01 % ID/g
Biodistribution, Bone ([2]; 240 min pi): 0.43 ±0.06 % ID/g
Biodistribution, Heart ([2]; 240 min pi): 0.02 ±0.00 % ID/g
Biodistribution, Liver ([2]; 240 min pi): 1.80 ±0.39 % ID/g
Biodistribution, Lung ([2]; 240 min pi): 0.06 ±0.00 % ID/g
Biodistribution, Muscle ([2]; 240 min pi): 0.05 ±0.05 % ID/g
Biodistribution, PSMA+ PIP tumor ([2]; 240 min pi): 36.6 ±4.3 % ID/g
Biodistribution, PSMA− flu tumor ([2]; 240 min pi): 0.03 ±0.01 % ID/g
Biodistribution, Pancreas ([2]; 240 min pi): 0.03 ±0.01 % ID/g
Biodistribution, Spleen ([2]; 240 min pi): 0.23 ±0.09 % ID/g
Biodistribution, Stomach ([2]; 240 min pi): 0.02 ±0.00 % ID/g
Biodistribution, lrg. Intest ([2]; 240 min pi): 0.06 ±0.01 % ID/g
Biodistribution, sm. Intest ([2]; 240 min pi): 0.05 ±0.01 % ID/g
Biodistribution, Kidney ([2]; 240 min pi, listed as [^18F]3): 7.42 ±0.89 % ID/g
Bone uptake ([2]; at all time points): < 1 % ID/g
Non-target tissue uptake ([2]; at or after 1 h post-injection): minimal non-target tissue uptake
Decrease of PSMA+ PC3 PIP xenograft uptake ([2]; from 30 min pi over the ensuing 4 h): about 10%
